Laboratory results as given in patent publication US20090275574A1, “NOVEL COMPOUNDS-300” (ASTRAZENECA AB, priority 2008, published 2009).

Tests used:
[1] = biological target: T1, hM1 (human Muscarinic receptor subtype 1) (Homo sapiens, UniProt P11229); assay: Human M1 calcium mobilization FLIPR assay; type: cell-based; conditions: hM1 expressed in CHO cells, intracellular Ca2+ release (FLIPR)
T1 construct: expressed in transfected cells; host or cells: CHO cells (ATCC)
T1 sequence (P11229 1-460): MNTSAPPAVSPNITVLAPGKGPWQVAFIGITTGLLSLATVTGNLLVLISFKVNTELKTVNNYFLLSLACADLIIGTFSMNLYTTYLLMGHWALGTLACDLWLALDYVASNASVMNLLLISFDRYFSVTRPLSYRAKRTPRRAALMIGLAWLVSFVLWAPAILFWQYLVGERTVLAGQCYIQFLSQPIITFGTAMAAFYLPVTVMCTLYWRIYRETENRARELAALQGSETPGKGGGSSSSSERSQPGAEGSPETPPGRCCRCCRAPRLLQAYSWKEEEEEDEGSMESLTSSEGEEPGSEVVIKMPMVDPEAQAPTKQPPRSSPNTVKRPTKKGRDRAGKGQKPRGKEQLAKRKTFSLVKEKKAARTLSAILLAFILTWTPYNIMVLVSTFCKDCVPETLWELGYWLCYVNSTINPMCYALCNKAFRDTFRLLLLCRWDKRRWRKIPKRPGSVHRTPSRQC
Procedure, shortened: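 CHO cells expressing human M1, M3 or M5 receptors, dye-loaded 60 min at 37 °C; Ca2+ release read by FLIPR (510-570 nm). M3/M5 inhibition measured against 2 nM acetylcholine added after compound; M1 agonism from maximal RFU, others max minus min. pEC50/pIC50 from sigmoidal fits, 10-point three-fold dilutions.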

cloned human M4 receptor = biological target: T2, cloned human M4 receptor (Homo sapiens, UniProt P08173); assay: hM4 receptor GTPγS binding; type: biochemical; conditions: CHO membranes expressing hM4, [35S]GTPγS binding
T2 construct: purchased Perkin-Elmer RBHM4M; host or cells: Chinese hamster ovary cells (CHO), membranes
T2 sequence (P08173 1-479): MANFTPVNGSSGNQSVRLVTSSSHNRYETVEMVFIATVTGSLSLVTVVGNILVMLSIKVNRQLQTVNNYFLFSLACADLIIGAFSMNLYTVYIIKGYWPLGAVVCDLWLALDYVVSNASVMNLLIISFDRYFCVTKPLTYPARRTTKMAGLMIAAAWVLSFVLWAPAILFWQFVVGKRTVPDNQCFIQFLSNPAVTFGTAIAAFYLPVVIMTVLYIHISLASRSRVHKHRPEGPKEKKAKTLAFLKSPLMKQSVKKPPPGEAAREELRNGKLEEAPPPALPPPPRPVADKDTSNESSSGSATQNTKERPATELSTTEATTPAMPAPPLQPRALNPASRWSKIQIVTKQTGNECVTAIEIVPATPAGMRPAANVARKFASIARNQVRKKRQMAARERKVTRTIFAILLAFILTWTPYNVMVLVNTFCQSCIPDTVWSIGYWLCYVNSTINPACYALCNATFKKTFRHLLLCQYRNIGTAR
Method: hM4 Receptor GTPγS Binding Membranes produced from Chinese hamster ovary cells (CHO) expressing the cloned human M4 receptor (human Muscarinic receptor subtype 4, gene bank access NM_000741), are obtained from Perkin-Elmer (RBHM4M). The membranes are thawed at 37° C., passed 3 times through a 23-gauge blunt-end needle, diluted in the GTPγS binding buffer (50 mM Hepes, 20 mM NaOH, 100 mM NaCl, 1 mM EDTA, 5 mM MgCl2, pH 7.4, 100 μM DTT). The EC50, IC50 and Emax of the compounds of the invention are evaluated from 10-point dose-response curves (three fold concentration range) done in 60 μl in 384-well non-specific binding surface plate (Corning). Ten microliters from the dose-response curves plate (5× concentration) are transferred to another 384 well plate containing 25 μl of the following: 10 μg of hM4 membranes, 500 μg of Flashblue beads (Perkin-Elmer) and GDP 40 μM. An additional 15 μl containing 3.3× (60,000 dpm) of GTPγ^35S (0.4 nM final) are added to the wells resulting in a total well volume of 50 μl. Basal and maximal stimulated [^35S]GTPγS binding are determined in absence and presence of 30 μM final of acetylcholine agonist. The membranes/beads mix are pre-incubated for 15 minutes at room temperature with 40 μM GDP prior to distribution in plates (20 μM final). The reversal of acetylcholine-induced stimulation (10 μM final) of [^35S]GTPγS binding is used to assay the antagonist properties (IC50) of the compounds. The plates are incubated for 60 minutes at room temperature then centrifuged at 400 rpm for 5 minutes. The radioactivity (cpm) is counted in a Trilux (Perkin-Elmer). Values of EC50, IC50 and Emax are obtained using sigmoidal fits of a non-linear curve-fitting program (XLfit version 4.2.2 Excel add-in version 4.2.2 build 18 math 1Q version 2.1.2 build 18) of percent stimulated [^35S]GTPγS binding vs. log(molar ligand). All pEC50 and pIC50 values are reported as arithmetic means±standard error of mean of ‘n’ independent experiments.

CCOCC1CCC(N2CCC(N3C(=O)CO[C@H]4CCCC[C@@H]43)CC2)CC1 (single isomer, unassigned) [Example 13]
EC50 [1]: 17 nM
EC50 (cloned human M4 receptor): > 23400 nM

CCCOCC1CCC(N2CCC(N3C(=O)NC[C@H]4CCCC[C@@H]43)CC2)CC1 (single isomer, unassigned) [Example 02]
EC50 [1]: 2 nM
EC50 (cloned human M4 receptor): 521 nM
